Here are results for 16 molecules from patent US20130116241A1, “NOVEL INHIBITOR COMPOUNDS OF PHOSPHODIESTERASE TYPE 10A” (AbbVie Inc., priority 2011, published 2013).

pIC50: −log10 of the molar value. Counter-ions that a name gives are not always drawn.

human PDE10A, sequence (Q9Y233 290-1055 limits assumed): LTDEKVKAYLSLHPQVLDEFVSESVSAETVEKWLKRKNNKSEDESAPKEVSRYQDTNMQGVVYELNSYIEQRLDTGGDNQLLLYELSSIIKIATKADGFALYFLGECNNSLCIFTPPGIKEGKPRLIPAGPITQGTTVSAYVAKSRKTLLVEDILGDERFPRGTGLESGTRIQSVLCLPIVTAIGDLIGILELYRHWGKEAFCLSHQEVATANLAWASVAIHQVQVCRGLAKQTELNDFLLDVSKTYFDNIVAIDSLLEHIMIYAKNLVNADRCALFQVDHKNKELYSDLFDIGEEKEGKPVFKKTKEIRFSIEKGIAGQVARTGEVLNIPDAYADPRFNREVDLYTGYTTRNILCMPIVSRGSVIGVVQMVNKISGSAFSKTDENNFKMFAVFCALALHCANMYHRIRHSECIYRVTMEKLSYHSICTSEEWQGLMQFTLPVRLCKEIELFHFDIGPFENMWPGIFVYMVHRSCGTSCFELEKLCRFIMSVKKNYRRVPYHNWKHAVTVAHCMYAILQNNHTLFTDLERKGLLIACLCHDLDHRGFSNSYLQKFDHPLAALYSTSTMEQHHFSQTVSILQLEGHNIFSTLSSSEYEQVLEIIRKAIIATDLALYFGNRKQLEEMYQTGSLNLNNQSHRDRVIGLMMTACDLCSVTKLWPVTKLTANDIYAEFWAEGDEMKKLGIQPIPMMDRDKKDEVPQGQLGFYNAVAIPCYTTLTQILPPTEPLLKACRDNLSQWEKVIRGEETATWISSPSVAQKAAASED

The experiment deals with human PDE10A (UniProt Q9Y233). Kind of experiment: Measurement of PDE activity (recombinant enzyme, HTRF cAMP kit). In kind it is biochemical. Particulars: Table 1, substrate 20 nM for PDE10, 60 minutes at 29 C, read-out: IC50. The procedure, abridged:
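Recombinant human PDE10A (10–250 pM range across PDEs) with 20 nM cAMP substrate in 20 mM Tris-HCl pH 7.5, 10 mM MgCl2, 0.1% BSA, compound pre-mixed with enzyme. Ran 60 min at 29 °C. Remaining cAMP read by HTRF, converted to % of uninhibited activity, and IC50 fitted.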
For orientation: In TR-FRET formats the signal depends on donor and acceptor labels being close together.
As to `O=c1c2c(-c3ccc(F)cc3F)csc2cnn1CCc1ccc2ccccc2n1` [Example 67, 3-(2,4-difluorophenyl)-5-[2-(quinolin-2-yl)ethyl]thieno[2,3-d]pyridazin-4(5H)-one], the pIC50 – broadly, −log10 of the IC50, conventionally taken in molar units – is 6.70 to 7.00. Take `COc1ccc(-c2cccc3cnn(CCc4ccc5ccccc5n4)c(=O)c23)cc1F` [Example 154, 8-(3-Fluoro-4-methoxyphenyl)-2-[2-(quinolin-2-yl)ethyl]phthalazin-1(2H)-one]: the pIC50 was 6.30 to 6.70. In the case of `O=c1c2c(-c3ccc(O)cc3)cccc2cnn1CCc1ccc2ccccc2n1` [Example 107, 8-(4-Hydroxyphenyl)-2-[2-(quinolin-2-yl)ethyl]phthalazin-1(2H)-one], the pIC50 is greater than 7.00. The same measure for `O=c1c2c(-c3cncnc3)cccc2cnn1CCc1cn2ccccc2n1` [Example 168, 2-[2-(Imidazo[1,2-a]pyridin-2-yl)ethyl]-8-(pyrimidin-5-yl)phthalazin-1(2H)-one]: greater than 7.00; for `COC1CCN(c2cccc3ccn([C@@H]4C[C@H]4c4ccc5ccccc5n4)c(=O)c23)CC1` (relative stereo) [Example 252, anti 8-(4-methoxypiperidin-1-yl)-2-(2-(quinolin-2-yl)cyclopropyl)isoquinolin-1(2H)-one (2E)-but-2-enedioate]: greater than 7.00; for `NCC1CC(Cl)CN1c1cccc2cnn(CCc3cn4ccccc4n3)c(=O)c12` (stereo not shown) [compound 366, trifluoroacetate]: greater than 7.00. As for `O=c1c2c(-c3ccncc3)csc2ccn1/C=C/c1ccc2cc(Cl)ccc2n1` [compound 412, 5-[(E)-2-(6-chloroquinolin-2-yl)ethenyl]-3-(pyridin-4-yl)thieno[3,2-c]pyridin-4(5H)-one], the figure is greater than 7.00; as for `O=c1c2c(-c3ccncc3)ccnc2cnn1CCc1ccc2ccccc2n1` [compound 404, 4-(pyridin-4-yl)-6-[2-(quinolin-2-yl)ethyl]pyrido[2,3-d]pyridazin-5(6H)-one], greater than 7.00; as for `O=c1c2c(-c3ccncc3)cccc2ccn1/C=C/c1ncc2ccccc2n1` [compound 411, 8-(pyridin-4-yl)-2-[(E)-2-(quinazolin-2-yl)ethenyl]isoquinolin-1(2H)-one], 6.70 to 7.00. The same measure for `N#CCc1ccc(-c2cccc3cnn(CCc4ccc5ccccc5n4)c(=O)c23)cc1` [Example 106, (4-{4-Oxo-3-[2-(quinolin-2-yl)ethyl]-3,4-dihydrophthalazin-5-yl}phenyl)acetonitrile]: greater than 7.00. Turning to `O=c1c2cccc(-c3cccnc3)c2ccn1C1CC1c1ccc2ccccc2n1` (stereo not shown) [compound 298], the pIC50 is 6.70 to 7.00. The same measure for `O=c1c2c(-c3ccncc3O)csc2ccn1CCc1ccc2ccccc2n1` [Example 203, 3-(3-Hydroxypyridin-4-yl)-5-[2-(quinolin-2-yl)ethyl]thieno[3,2-c]pyridin-4(5H)-one hydrochloride]: 6.30 to 6.70; for `O=c1c2c(-c3cccnc3)csc2ccn1C1CC1c1ccc2sccc2n1` (stereo not shown) [compound 288]: greater than 7.00. As for `O=c1c2cccc(N3CC4COCC4C3)c2cnn1CCc1cn2ccccc2n1` (stereo not shown) [Example 199, 2-[2-(Imidazo[1,2-a]pyridin-2-yl)ethyl]-5-(tetrahydro-1H-furo[3,4-c]pyrrol-5(3H)-yl)phthalazin-1(2H)-one hydrochloride], the figure is greater than 7.00. As for `O=c1c2c(-c3ccncc3)csc2cnn1CCc1ccc2cc(F)ccc2n1` [Example 93, 5-[2-(6-Fluoroquinolin-2-yl)ethyl]-3-(pyridin-4-yl)thieno[2,3-d]pyridazin-4(5H)-one], the figure is greater than 7.00. As to `O=c1c2cccc(-c3cncnc3)c2cnn1CCc1cn2ccccc2n1` [Example 197, 2-[2-(Imidazo[1,2-a]pyridin-2-yl)ethyl]-5-(pyrimidin-5-yl)phthalazin-1(2H)-on], the pIC50 is greater than 7.00.
